Test in all cases: growth of human tumour cells (NCI), 48 h
Test [1] deals with DU-145.
Test [2] relates to MDA-MB-231.
Test [3] relates to HCT-116.
For test [4], the system named is HOP-92.
Test [5] deals with HCC 2998.
Test [6] deals with NCI-H23.
Test [7] deals with U-251.
The subject of test [8] is NCI/ADR-RES.
For test [9], the system named is RPMI-8226.
For test [10], the system named is SNB-19.
The subject of test [11] is MCF7.
The test system of test [12] is SR.
The test system of test [13] is EKVX.
For test [14], the system named is SNB-75.
Test [15] deals with COLO 205.
In test [16] the test system is HT-29.
Test [17] has as its system CCRF-CEM.
For test [18], the system named is T47D.
In test [19] the test system is SK-MEL-5.
The subject of test [20] is ACHN.

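Each compound was tested at five concentrations against cells in 96-well plates for 48 hours. At the GI50, growth is halved.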 Active and inactive are the calls of the source. No stated cut-off is given here; in the data, active = GI50 up to about 1.1 µM and inactive = higher.

Regarding `Cc1cc(NCc2ccccc2)c2ccccc2[n+]1CCCCCCCCCC[n+]1c(C)cc(NCc2ccccc2)c2ccccc21.[O-][Cl+3]([O-])([O-])[O-].[O-][Cl+3]([O-])([O-])[O-]`, the GI50 is 0.692 µM (active) in test [1]; 0.472 µM (active) in test [2]; 0.324 µM (active) in test [3]; 0.649 µM (active) in [4]; 0.562 µM (active) in [5]; 0.247 µM (active) in test [6]. For the same molecule, the GI50 in [7] was 0.0964 µM (active); in test [8], 3.15 µM (inactive); in [9], 0.124 µM (active); in test [10], 0.252 µM (active); in test [11] it was 0.318 µM (active); in [12], 0.223 µM (active). Moreover, the GI50 was 1.19 µM (inactive) in test [13]; 0.205 µM (active) in [14]; 0.236 µM (active) in test [15]; 0.345 µM (active) in [16]; 0.377 µM (active) in [17]; 0.321 µM (active) in test [18]. In addition, the figures for the GI50 in [19] and in test [20] were 0.171 µM (active) and 0.565 µM (active), respectively.
On to `N=C(N)N/N=C\c1ccc(C2CCNCC2)cc1`, for which the GI50 in test [1], in [2], in test [3], in [4], in test [5] and in [6] was > 100 µM (inactive) throughout. The GI50 in test [7], in test [8], in test [9], in [10], in test [11] and in [12] was > 100 µM (inactive) each time. Also, the GI50 in [13], in test [14], in [15], in test [16], in [17] and in test [18] was > 100 µM (inactive) in each case. The GI50 in test [19] and in test [20] was > 100 µM (inactive) in each case.
Regarding `O=C(CSCC(=O)N/N=C/c1cc(I)cc(I)c1O)N/N=C/c1cc(I)cc(I)c1O`, the GI50 was 17.7 µM (inactive) in test [1]; 7.18 µM (inactive) in test [2]; 9.29 µM (inactive) in [3]; 39.5 µM (inactive) in test [4]; 12.8 µM (inactive) in [5]; 11.6 µM (inactive) in test [6]. In addition, the GI50 is 6.61 µM (inactive) in test [7]; 17.2 µM (inactive) in test [8]; 26.5 µM (inactive) in [9]; 10.5 µM (inactive) in [10]; 15.1 µM (inactive) in test [11]; 3.54 µM (inactive) in [12]. The GI50 was 16 µM (inactive) in [13]; 5.65 µM (inactive) in test [14]; 23.1 µM (inactive) in [15]; 32.9 µM (inactive) in [16]; 34.3 µM (inactive) in test [18]; 10.6 µM (inactive) in test [19]. The GI50 in test [20] is 11.9 µM (inactive).
With `N/C(CSCCSC/C(N)=N/O)=N\O`, the GI50 in test [1], in test [2], in [3], in [4], in [5] and in [6] was > 100 µM (inactive) throughout. The GI50 in [7], in test [8], in test [9], in test [10], in test [11] and in test [12] was > 100 µM (inactive) in each case. Further, the GI50 in test [13], in [14], in test [15], in test [16], in test [17] and in test [18] was > 100 µM (inactive) throughout. The GI50 in test [19] and in [20] was > 100 µM (inactive) in each case.
On to `COc1ccc2c3c1OC1C4(CCC5C(C2)N(CC2CC2)CCC351)OCCO4` (configuration not stated), for which the GI50 in [1], in test [2], in test [3], in test [4], in [5] and in test [6] was > 100 µM (inactive) in each case. The GI50 in test [7], in [8], in test [9], in test [10], in test [11] and in [12] was > 100 µM (inactive) each time. The GI50 in test [13], in [14], in [15], in test [16], in test [17] and in test [18] was > 100 µM (inactive) in each case. Besides, the GI50 in [19] and in test [20] was > 100 µM (inactive) throughout.
As to `CO[C@@]12[C@H](COC(N)=O)C3=C(C(=O)C(C)=C(N)C3=O)N1C[C@H]1[C@@H]2N1C` (some centres not stated) [PORFIROMYCIN], the GI50 was 0.282 µM (active) in test [1]; 9.73 µM (inactive) in test [2]; 2.22 µM (inactive) in test [3]; 5.43 µM (inactive) in test [4]; 1.95 µM (inactive) in [5]; 0.506 µM (active) in test [6]. Further, the GI50 was 1.19 µM (inactive) in test [7]; 29.4 µM (inactive) in test [8]; 8.41 µM (inactive) in test [9]; 2.35 µM (inactive) in test [10]; 0.714 µM (active) in test [11]; 0.409 µM (active) in test [12]. Further, the GI50 is 12.3 µM (inactive) in test [13]; 1.1 µM (active) in test [14]; 2.22 µM (inactive) in test [15]; 1.42 µM (inactive) in test [16]; 0.993 µM (active) in [17]; 9.2 µM (inactive) in test [18]. For the same molecule, the GI50 is 1.8 µM (inactive) in [19] and 0.38 µM (active) in test [20].
Take `O=CNNC(=O)Nc1ccc(Cl)cc1`: the GI50 was > 100 µM (inactive) in test [1]; > 100 µM (inactive) in test [2]; > 100 µM (inactive) in test [3]; 26.9 µM (inactive) in [4]; > 100 µM (inactive) in test [5]; > 100 µM (inactive) in test [6]. In addition, the GI50 in test [7] was > 100 µM (inactive); in [8], > 100 µM (inactive); in [9], > 100 µM (inactive); in test [10] it was 95.7 µM (inactive); in test [11] it was > 100 µM (inactive); in [12] it was > 100 µM (inactive). Also, the GI50 in test [13], in test [14], in [15], in test [16], in test [17] and in [18] was > 100 µM (inactive) throughout. Further, the GI50 in test [19] and in test [20] was > 100 µM (inactive) in each case.
As to `O=C1/C(=C/c2ccccc2)N=C2Sc3c([nH]cnc3=O)N12`, the GI50 in test [1], in [2], in [3], in [4], in test [5] and in [6] was > 100 µM (inactive) each time. In addition, the GI50 is > 100 µM (inactive) in test [7]; > 100 µM (inactive) in test [8]; > 100 µM (inactive) in [9]; > 100 µM (inactive) in [10]; > 100 µM (inactive) in test [11]; 25.1 µM (inactive) in [12]. For the same molecule, the GI50 in test [13], in [14], in test [15], in test [16], in test [17] and in test [18] was > 100 µM (inactive) each time. Further, the GI50 in [19] and in test [20] was > 100 µM (inactive) each time.
Consider `CC(C)(CO)CNc1nc(N)nc(Cl)c1/C=N/O`, for which the GI50 is 31.4 µM (inactive) in test [1]; 25.8 µM (inactive) in [2]; 10.2 µM (inactive) in test [3]; 19.7 µM (inactive) in test [4]; 71.1 µM (inactive) in test [5]; 3.45 µM (inactive) in test [6]. Moreover, the GI50 in test [7] is 48.6 µM (inactive); in [8], 41.6 µM (inactive); in test [9], 15.2 µM (inactive); in [11], 23.8 µM (inactive); in test [12], 24.1 µM (inactive); in test [13], 17.5 µM (inactive). Moreover, the GI50 in [14] was 50.9 µM (inactive); in [15], 62.7 µM (inactive); in test [16], 42.1 µM (inactive); in [17], 23 µM (inactive); in test [18], 4.31 µM (inactive); in [19], 5.78 µM (inactive). Further, the GI50 in test [20] was 28.6 µM (inactive).
Regarding `CCCCc1ccc(Nc2nc(Cl)c3ncn(C4CC(Oc5ccc(C)cc5)C(COc5ccc(C)cc5)O4)c3n2)cc1` (configuration not stated), the GI50 in test [1] is > 100 µM (inactive); in test [2] it was > 100 µM (inactive); in [3], > 100 µM (inactive); in test [4] it was 17.2 µM (inactive); in test [5] it was 44.9 µM (inactive); in test [6] it was > 100 µM (inactive). For the same molecule, the GI50 in test [8], in [9], in test [10], in [11], in test [12] and in test [13] was > 100 µM (inactive) throughout. The GI50 in test [14], in [15], in test [16], in test [17], in test [18] and in [19] was > 100 µM (inactive) in each case. Further, in [20], the GI50 is > 100 µM (inactive).

The record behind these values is ChEMBL document CHEMBL1201862, “PubChem BioAssay data set” (2004).
